Assay results taken from US6417181B1, “Naphthyl-substituted and anilide-substituted sulfonamides” (Bayer Aktiengesellschaft, priority 1998, dated 2002).

What was measured:
[1] = tested on: human cytomegalovirus (HCMV); test: anti-HCMV screening test: spread of the cytopathogenic effect in HELF cell cultures, 96-well microtitre plates; type: cell-based; settings: Human betaherpesvirus 5; HCMV-infected HELF cells, CPE, Neutral Red staining
Procedure: The anti-HCMV action was determined in a screening test system in 96-well microtitre plates with the aid of human embryonic lung fibroblast (HELF) cell cultures. The effect of the substances on the spread of the cytopathogenic effect was determined in comparison with the reference substance ganciclovir (Cymevene® sodium), a clinically approved anti-HCMV chemotherapeutic.
The substances dissolved (50 mM) in DMSO (dimethyl sulphoxide) are investigated on microtitre plates (96-well) in duplicate determinations (4 substances/plate). Toxic and cytostatic substance effects are additionally detected at the same time. After the appropriate substance dilutions (1:2) on the microtitre plate, a suspension of 50-100 HCMV-infected HELF cells and […] non-infected HELF cells in Eagle's MEM with 10% foetal calf serum is added to each well, and the plates are incubated at 37° C. in a CO2 incubator for several days. After this time, the cell lawn in the sub-stance-free virus controls, starting from 50-100 infectious centres, is completely destroyed by the cytopathogenic effect of the HCMV (100% CPE). After staining with Neutral Red and fixing with formalin/methanol, the plates are assessed with the aid of a projection microscope (plaque-viewer).

EC50 [1] [nM] | melting point | Compound
 | 216 °C | CC(C)(C)C(=O)Nc1ccc(NS(=O)(=O)c2ccc(N)c3ccccc23)cc1
 | > 240 °C | CC(=O)Nc1ccc(S(=O)(=O)Nc2ccc(NC(=O)C(C)(C)C)cc2)c2ccccc12
28 |  | CN(C)c1cccc2c(S(=O)(=O)Nc3ccc(NC(=O)C(C)(C)CCl)cc3)cccc12 [Example 16]
 | 248 °C (dec.) | CNc1ccc(S(=O)(=O)Nc2ccc(NC(=O)C(C)(C)C)cc2)c2ccccc12

The next lines start with the compound.

Compound | EC50 [1] [nM] | melting point
CN(C)c1cccc2c(S(=O)(=O)Nc3ccc(NC(=O)C(C)(C)CN)cc3)cccc12 [Example 25] | 640 | 
CN(C)c1cccc2c(S(=O)(=O)Nc3ccc(NC(=O)C(C)(CO)CO)cc3)cccc12 [Example 24] | 880 | 
CN(C)c1cccc2c(S(=O)(=O)Nc3ccc(NC(=O)C(C)(C)CF)cc3)cccc12 [Example 13] | 64 | 
